Measured values: the supplement of paper PMC10307832

Legend:
Experiment in all cases: relative viability (nuclei count vs DMSO), 5 days (fraction); higher = more cells survive
Bromopyruvate + AZD7762 = compound: C(C(=O)C(=O)O)Br [Bromopyruvate] + NC(=O)Nc1cc(-c2cccc(F)c2)sc1C(=O)N[C@H]1CCCNC1 [AZD7762] (partner 0.2 µM)
Summary of the method: (§1)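 Medians of duplicate plates are given as relative viability. That measure is the nuclei count in treated wells divided by the count in vehicle wells. Counts were taken on 4× images of lung cancer cell lines in 1536-well plates, 5 days after pin-tool dosing the day after seeding with one drug alone or a fixed anchor-drug dose plus five library-drug doses (not always all listed) in √10 steps.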

[1] = compound: C(C(=O)C(=O)O)Br [Bromopyruvate] + Cc1cc(Nc2cc(N3CCN(C)CC3)nc(Sc3ccc(NC(=O)C4CC4)cc3)n2)n[nH]1 [Tozasertib] (partner 0.1 µM)
Summary of the method: as §1

Bromopyruvate + OSI-027 = compound: C(C(=O)C(=O)O)Br [Bromopyruvate] + COc1cccc2cc(-c3nc([C@H]4CC[C@H](C(=O)O)CC4)n4ncnc(N)c34)[nH]c12 [OSI-027] (partner 0.5 µM)
Summary of the method: as §1

Bicalutamide + Alpelisib = compound: CC(O)(CS(=O)(=O)c1ccc(F)cc1)C(=O)Nc1ccc(C#N)c(C(F)(F)F)c1 [Bicalutamide] + Cc1nc(NC(=O)N2CCC[C@H]2C(N)=O)sc1-c1ccnc(C(C)(C)C(F)(F)F)c1 [Alpelisib] (partner 2 µM)
Summary of the method: as §1

| Cell Line | relative viability (Bromopyruvate + AZD7762; first compound 1 µM) | relative viability (Bromopyruvate + AZD7762; first compound 10 µM) | relative viability (Bromopyruvate + AZD7762; first compound 100 µM) | relative viability ([1]; first compound 1 µM) | relative viability ([1]; first compound 3.162 µM) | relative viability ([1]; first compound 10 µM) | relative viability ([1]; first compound 31.62 µM) | relative viability ([1]; first compound 100 µM) | relative viability (Bromopyruvate + OSI-027; first compound 1 µM) | relative viability (Bromopyruvate + OSI-027; first compound 3.162 µM) | relative viability (Bromopyruvate + OSI-027; first compound 10 µM) | relative viability (Bromopyruvate + OSI-027; first compound 31.62 µM) | relative viability (Bromopyruvate + OSI-027; first compound 100 µM) | relative viability (Bicalutamide + Alpelisib; first compound 0.08 µM) | relative viability (Bicalutamide + Alpelisib; first compound 0.253 µM) | relative viability (Bicalutamide + Alpelisib; first compound 0.8 µM) | relative viability (Bicalutamide + Alpelisib; first compound 2.53 µM) | relative viability (Bromopyruvate + AZD7762; first compound 3.162 µM) | relative viability (Bromopyruvate + AZD7762; first compound 31.62 µM) |
| --- | --- | --- | --- | --- | --- | --- | --- | --- | --- | --- | --- | --- | --- | --- | --- | --- | --- | --- | --- |
| PC-3 [JPC-3] | 0.903 | 0.933 | 0.638 | 0.906 | 0.868 | 0.937 | 0.841 | 0.892 | 0.814 | 0.77 | 0.709 | 0.783 | 0.735 | 1.08 | 1.01 | 1.09 | 1.07 | – | – |
| NCI-H1437 | 1.15 | 1.22 | 1.14 | 0.384 | 0.414 | 0.447 | 0.397 | 0.451 | 0.921 | 0.861 | 0.943 | 0.909 | 0.847 | 1.02 | 0.988 | 1.24 | 0.954 | 1.1 | 1.12 |
| NCI-H1666 | 0.966 | 0.878 | 0.766 | 0.644 | 0.722 | 0.543 | 0.603 | 0.51 | 0.913 | 0.881 | 0.836 | 0.923 | 0.854 | 1.01 | 0.889 | 1.13 | 0.942 | 0.843 | 0.872 |
| NCI-H1651 | 0.441 | 0.474 | 0.4 | 0.634 | 0.718 | 0.665 | 0.701 | 0.652 | 0.746 | 0.704 | 0.799 | 0.694 | 0.63 | 0.956 | 0.947 | 1.17 | 0.944 | 0.491 | 0.403 |
| NCI-H1755 | 0.432 | 0.381 | 0.473 | 0.59 | 0.568 | 0.495 | 0.702 | 0.693 | 0.77 | 0.773 | 0.729 | 0.777 | 0.726 | 0.914 | 0.903 | 0.992 | 0.853 | 0.476 | 0.51 |
| NCI-H727 | 0.664 | 0.635 | 0.53 | 0.593 | 0.745 | 0.644 | 0.591 | 0.535 | 0.644 | 0.624 | 0.682 | 0.55 | 0.638 | 0.63 | 0.546 | 0.471 | 0.483 | 0.582 | 0.521 |
| HARA | 1.98 | – | 0.289 | 0.13 | 0.122 | 0.0899 | 0.13 | 0.102 | 0.518 | 0.567 | 0.624 | 0.436 | 0.571 | 1.01 | 0.767 | 0.931 | 0.876 | 0.393 | 0.298 |
| NCI-H647 | 0.565 | 0.405 | 0.568 | 0.289 | 0.221 | 0.29 | 0.298 | 0.389 | 0.618 | 0.744 | 0.689 | 0.653 | 0.633 | 1.32 | 1.33 | 1.47 | 0.858 | 0.63 | 0.553 |
| NCI-H2347 | 0.751 | 0.754 | 0.773 | 0.69 | 0.534 | 0.715 | 0.479 | 0.609 | 0.453 | 0.401 | 0.379 | 0.357 | 0.375 | 1.09 | 1.09 | 1.12 | 0.971 | 0.79 | 0.711 |
| LCLC-97TM1 | 0.224 | 0.207 | 0.236 | 0.195 | 0.206 | 0.212 | 0.182 | 0.128 | 0.53 | 0.482 | 0.735 | 0.522 | 0.51 | 0.254 | 0.231 | 0.286 | 0.226 | 0.375 | 0.275 |
| EPLC-272H | 0.236 | 0.346 | 0.258 | 0.257 | 0.372 | 0.241 | 0.325 | 0.215 | 0.245 | 0.244 | 0.359 | 0.251 | 0.301 | 1.05 | 1.03 | 0.951 | 0.809 | 0.205 | 0.313 |
| NCI-H1915 | 0.699 | 0.671 | 0.689 | 0.438 | 0.455 | 0.445 | 0.444 | 0.392 | 0.669 | 0.612 | 0.665 | 0.637 | 0.677 | 1.07 | 1.12 | 1.14 | 1.01 | 0.681 | 0.661 |
| NCI-H3122 | 1.03 | 1.04 | 0.921 | 0.381 | 0.378 | 0.468 | 0.417 | 0.382 | 0.914 | 1.13 | 1.27 | 0.964 | 1.06 | 0.707 | 0.92 | 0.821 | 0.767 | 0.967 | 0.989 |
| NCI-H441 | 1.01 | 1.06 | 1.14 | 0.597 | 0.614 | 0.605 | 0.615 | 0.565 | 0.709 | 0.693 | 0.76 | 0.609 | 0.571 | 0.968 | – | 0.856 | 0.876 | 1.18 | 0.978 |
| NCI-H2170 | 0.923 | 1.19 | 0.854 | 0.689 | 0.708 | 0.798 | 0.761 | 0.868 | 0.469 | 0.686 | 0.769 | 0.761 | 0.743 | 0.834 | 0.767 | 0.853 | 0.842 | 0.989 | 0.893 |
| NCI-H1395 | 0.447 | 0.426 | 0.42 | 0.757 | 0.788 | 0.834 | 0.718 | 0.751 | 0.679 | 0.672 | 0.669 | 0.591 | 0.637 | 0.94 | 1.04 | 1.34 | 0.928 | 0.398 | 0.414 |
| NCI-H358 | 0.656 | 0.609 | 0.555 | 0.0956 | 0.115 | 0.104 | 0.0945 | 0.0906 | 0.813 | 0.758 | 0.956 | 0.769 | 0.797 | 0.808 | 0.904 | 0.936 | 0.992 | 0.578 | 0.505 |
